Literature values, collected in patent publication EP0551434B1 (BOARD OF REGENTS THE UNIVERSITY OF TEXAS SYSTEM, priority 1990, dated 1992).

Target: estrogen receptor (Homo sapiens, UniProt P03372)
Conditions: Salituro et al.; cited from earlier work

estrogen receptor, sequence (P03372 whole entry): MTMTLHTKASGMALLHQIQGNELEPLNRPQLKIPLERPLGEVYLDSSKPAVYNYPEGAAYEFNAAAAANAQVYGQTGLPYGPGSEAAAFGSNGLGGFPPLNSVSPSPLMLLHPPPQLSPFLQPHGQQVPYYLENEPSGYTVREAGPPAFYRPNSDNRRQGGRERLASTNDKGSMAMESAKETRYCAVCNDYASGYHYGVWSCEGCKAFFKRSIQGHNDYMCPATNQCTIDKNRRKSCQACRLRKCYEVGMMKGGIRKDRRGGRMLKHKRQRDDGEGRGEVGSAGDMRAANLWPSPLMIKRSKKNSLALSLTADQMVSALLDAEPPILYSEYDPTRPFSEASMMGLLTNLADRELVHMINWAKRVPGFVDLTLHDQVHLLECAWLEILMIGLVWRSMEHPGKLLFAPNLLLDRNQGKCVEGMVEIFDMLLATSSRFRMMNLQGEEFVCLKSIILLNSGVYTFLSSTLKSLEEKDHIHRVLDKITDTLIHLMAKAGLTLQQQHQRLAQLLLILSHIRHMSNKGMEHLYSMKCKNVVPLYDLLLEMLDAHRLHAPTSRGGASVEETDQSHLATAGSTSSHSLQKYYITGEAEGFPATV

With `CC/C(=C(\c1ccccc1)c1ccc(OCCN2CC2)cc1)c1ccccc1` (single isomer, unassigned) [tamoxifen azizidine cis isomer, tamoxifen azizidine] as the molecule, how does the “fold less affinity than the trans isomer” value read?
The value was 50 fold.
